Values of other authors in patent EP4407007A1, “ECO-FRIENDLY INK FORMULATION, PARTICULARLY FOR BALLPOINT PENS AND ASSOCIATED BALLPOINT PEN CARTRIDGE” (Reinol S.r.l., priority 2023, dated 2024).

Assays:
Fish = conditions: hazard category
[1] = hazard category
[2] = hazard category; remark: listed apart in the source

Row | SMILES | Aquatic toxicity Fish (Fish) | Acute toxicity Oral inhalation [1] | Skin irritation [2]
1 | CC1(C)OCC(CO)O1 (racemic) [2,2-dimethyl-1,3-dioxolane-4-yl-methanol] | Unclassified | Unclassified | Unclassified
2 | OCc1ccccc1 [benzyl alcohol] | Category 2 | Category 4 | Category 2
